Measured values as given in patent publication US12366579B2, “Sulfur-heterocycle exchange chemistry and uses thereof” (University of Virginia Patent Foundation, priority 2019, dated 2025).

What was measured:
[1] = HPLC assay, n-butylamine reactivity against a sulfonyl probe mixture; assay type: physicochemical; conditions: TMG 3.3 equivalents
Description: The following reagents were prepared and kept at 0° C. prior to use: 0.1 M solution of caffeine in acetonitrile (ACN), 1.0 M solution of n-butylamine, p-cresol, tetramethylguanidine (TMG), acetic acid in ACN, and 10 mM solution of the probes in a mixture of DMF-ACN (v/v=10:90) are made.
(ii) n-Butylamine reactivity against a probe mixture: Reactivity of sulfonyl probes against n-butylamine (3.3 eq) was performed as described above except the amount of TMG was fixed at 3.3 eq.

[2] = system: HEK293T soluble proteomes; experiment: LC-MS chemical proteomics of probe-modified sites in cell proteomes; assay type: binding, human
Description: Proteomes were diluted to 2.3 mg/mL in PBS and sample aliquots (432 μL) were treated with sulfonyl-triazole or -fluoride probes at the indicated concentrations (5 μL, 100× stock in DMSO), mixed gently and incubated for 1 h at room temperature. Probe-modified proteomes were subjected to CuAAC conjugation to desthiobiotin-PEG3-azide (10 μL of 10 mM stock in DMSO; final concentration of 200 μM) using TCEP (10 μL of fresh 50 mM stock in water; 1 mM final concentration), TBTA ligand (33 μL of a 1.7 mM 4:1 t-butanol/DMSO stock, 100 μM final concentration), and CuSO4 (10 μL of 50 mM stock, 1 mM final concentration). Samples were mixed by vortexing and then incubated for 1 h at room temperature. Excess reagents were removed by chloroform-methanol extraction as previously described^51. Protein pellets were re-suspended in 500 μL of 6M urea/25 mM ammonium bicarbonate followed by DTT reduction and IAA alkylation as previously described^5. Excess reagents were removed by chloroform/methanol extraction as described above, and the protein pellet was re-suspended in 500 μL of 25 mM ammonium bicarbonate and then digested to peptides using trypsin/Lys-C (7.5 μg in 15 μL of ammonium bicarbonate, sequencing grade from Promega, Madison, Wisconsin, United States of America) was added to the mixture and incubated for 3 hrs at 37° C. Probe-modified peptides were enriched by avidin affinity chromatography, eluted, and prepared for LC-MS analysis as previously described^51.
A top 10 data-dependent acquisition MS method was used.
Sulfonyl-probe modifications of tyrosine, lysine, and other amino acids were included as a variable (common) modification of +635.27374 Da. […] A Byonic score of 300 was applied for a more inclusive initial evaluation of the search results and thereby consider more possible probe-modified sites. MS1 and MS2 spectra corresponding to the highest-scoring tyrosine- and lysine (internal or non-C terminal)-modified sequences (˜50-100 peptides) were manually verified. […] Distinct peptides containing probe-modified amino acid residues (termed sites) were determined by identifying all unique razor protein and site combinations across all of the proteomes tested.
To compare amino acid residues modified by sulfonyl probes, protein and peptide identifications were accomplished as described above with variable (common) modification of +635.27374 Da on the following amino acid residues: cysteine, aspartic acid, glutamic acid, histidine, lysine, methionine, asparagine, glutamine, arginine, serine, threonine, tryptophan, and tyrosine. For these amino acid comparisons, carbamidomethylation (+57.021464 Da) of cysteines was searched as a variable/common modification to allow for the potential of probe modification on cysteines. Comparisons of probe-modified sites across all probes and cell lines tested were performed using the R package ggplot2 (online at tidyverse.org). Venn diagrams for comparisons were generated using the VennDiagram R package^52.
Proteomes were digested with trypsin protease and desthiobiotin-modified peptides enriched by avidin affinity chromatography, released, and analyzed by high-resolution liquid chromatography-mass spectrometry (LC-MS). Probe-modified peptide-spectrum matches (PSMs) that met a quality control confidence criteria of ≥300 Byonic score^31 and ≤5 ppm mass accuracy were selected for further manual evaluation.

[3] = system: HEK293T, Jurkat cells; experiment: Live cell chemical proteomic profiling with SuTEx probes; assay type: cell-based, human; conditions: 100 μM, 2 hr, 37° C.; membrane and soluble fractions; both probes
Description: Cells grown to ˜90% confluency in 10 cm plates were treated with DMSO vehicle or sulfonyl-triazole probe (10 μL of 1000×DMSO stock) in serum-free media for the indicated concentrations and times at 37° C. with 5% CO2. After treatment, cells were washed with cold PBS twice before harvesting and preparation for gel-based chemical proteomic evaluation as described above. For LC-MS studies, protein concentrations were normalized to 2.3 mg/mL and 432 μL (for 1 mg final protein amount) were used for sample preparation as detailed below.
Proteomes were diluted to 2.3 mg/mL in PBS and sample aliquots (432 μL) were treated with sulfonyl-triazole or -fluoride probes at the indicated concentrations (5 μL, 100× stock in DMSO), mixed gently and incubated for 1 h at room temperature. Probe-modified proteomes were subjected to CuAAC conjugation to desthiobiotin-PEG3-azide (10 μL of 10 mM stock in DMSO; final concentration of 200 μM) using TCEP (10 μL of fresh 50 mM stock in water; 1 mM final concentration), TBTA ligand (33 μL of a 1.7 mM 4:1 t-butanol/DMSO stock, 100 μM final concentration), and CuSO4 (10 μL of 50 mM stock, 1 mM final concentration). Samples were mixed by vortexing and then incubated for 1 h at room temperature. Excess reagents were removed by chloroform-methanol extraction as previously described^51. […]

[4] = HPLC reactivity assay with glutathione (GSH stability); assay type: physicochemical; conditions: 5×GSH, basic conditions (TMG)
Description: Glutathione (GSH) adduction to compounds is a mechanism of metabolism for compounds administered to animals and humans. Accordingly, an HPLC reactivity assay^72 was performed to evaluate whether sulfonyl-triazoles (HHS-475) react with GSH. HHS-475 (see Example 1) was used as an exemplary SuTEx compound. Initially, the HPLC assay was used to monitor the rapid reaction of HHS-475 with the model nucleophile p-cresol (as a mimic of the tyrosine side chain) under basic conditions (TMG). […] The 5×GSH was used because GSH is typically found at high concentrations in vivo.

reaction with GSH [4]: negligible reaction
Structure (SMILES): C#CCNC(=O)c1ccc(S(=O)(=O)n2cncn2)cc1 [HHS-475, 4-((1H-1,2,4-Triazol-1-yl)sulfonyl)-N-(prop-2-yn-1-yl)benzamide]
time to complete reaction with n-butylamine [1]: 6 h
unique-modified tyrosine sites among 1,2,4-SuTEx probes ([2]; FIG. 4D): 391 sites
tyrosine specificity, Y/K ratio of modified sites ([2]; LC-MS chemical proteomics, FIG. 4A): 2.8
distinct tyrosine sites measured in live cell studies, in total per cell line [3]: ~3,500 sites
